“Also recorded” adds a separate entry of the source. Where no end group is shown, it is not given here.
Assays:
Type in all cases: physicochemical
[1] = Molecular exclusion chromatography-HPLC of the peptide in water, PBS and sucrose; conditions: dissolved in water (control)
Text: FIG. 3. Molecular exclusion chromatography—HPLC of the peptide of Seq ID No. 1 dissolved in water (A), in phosphate buffered saline (PBS) (B) and in sucrose (C).
In PBS the peptide eluted in a shorter retention time, compared to the sample dissolved in water and in sucrose solution.

[2] = Effect of pH on concentration and purity of the peptide in 50 mM sodium acetate buffer (RP-HPLC); conditions: 2.5 mg/mL in 50 mM sodium acetate buffer, pH 3.0, 4.0, 5.0; 4° C. or 37° C., 15 days
Procedure: FIG. 4. Effect of pH on concentration of peptide identified as Seq ID No. 1, in samples formulated and stored at 4° C. (A) and at 37° C. (B).
FIG. 5. Effect of pH on the purity of the peptide identified as Seq ID No. 1, in samples formulated and stored at 37° C.
Three pH values were analyzed: 3.0; 4.0 and 5.0. Samples were filtered and stored at 4° C. or at 37° C., for 15 days. Evaluation of stability and concentration of peptide was carried out by RP-HPLC. Results of concentration of peptide stored at 4° C. or at 37° C., respectively, are shown in FIGS. 4A and 4B, respectively. […] At 37° C., precipitation process is accelerated.
Chemical integrity of peptide (expressed as % purity in RP-HPLC) was greater than 95%, for the samples formulated in three pH values, when these were stored at 4° C., for 15 days.

[3] = Stability of the peptide in 50 mM sodium phosphate buffer pH 7.4 at 37° C. (RP-HPLC, mass spectrometry)
Procedure: FIG. 1. Chromatographic profile of APL-type peptide identified as Seq ID No. 1 dissolved in 50 mM sodium phosphate buffer, pH 7.4. The profile was obtained by reverse phase chromatography (RP-HPLC), (A) time 0, (B) 15 days of storage at 37° C.
APL type peptide was obtained by chemical synthesis. […] To study the causes of such effect, peptide was dissolved in that buffer and stored at 37° C. for 15 days. Subsequently, several aliquots were analyzed periodically by RP-HPLC. Presence of contaminating species was verified, these were purified and analyzed by mass spectrometry, and several fractions were identified that could correspond to degradations.
In order to accelerate the degradation, peptide was incubated under stress conditions that allow the possible degraded species of the peptide to be obtained fast and in high proportions. Fractions collected after RP-HPLC were characterized by mass spectrometry.

[4] = Solubility of the peptide in buffers and excipients, determined by RP-HPLC
Procedure: Different ionic species, pH and excipients were evaluated, to achieve the total solubility of the peptide, and a high chemical stability. Solubility of peptide was evaluated with different excipients, which included different ionic salts, sugars, polyols, amino acids and detergents.
First stage of the formulation development included the evaluation of buffer species influence and pH on chemical and physical stability of the peptide.

solubility of peptide [1]: good solubility | physical stability of peptide [2]: greater at pH 3.0 | degraded species identified by mass spectrometry (fractions 1, 2 and 4) ([3]; 50 mM sodium phosphate buffer pH 7.4, 15 days at 37° C.): deamidated variants of the peptide | stability of peptide in solution ([3]; 50 mM sodium phosphate buffer, pH 7.4): progressively destabilized | solubility of peptide ([4]; in other ionic species: sodium citrate, sodium glutamate and Tris-HCl): very poorly soluble | solubility of peptide ([4]; in solutions of sucrose or trehalose, peptide 1-10 mg/mL): highest solubility | solubility of peptide ([4]; sodium acetate buffer (acetic acid and sodium hydroxide), 10-70 mM): best solubilized the peptide
Sequence: SIDLKDKYKNIGAKLVQLVANNTNEEA [peptide identified as Seq ID No. 1]
solubility of peptide ([4]; in sodium phosphate buffer (50 mM, pH 7.4)): very poorly soluble; also recorded: poorly soluble

— patent US20240316147A1, “PHARMACEUTICAL COMPOSITION COMPRISING AN APL TYPE PEPTIDE” (CENTRO DE INGENIERIA GENÉTICA Y BIOTECNOLOGIA, priority 2017, published 2024)
